In the kinase profiling compilation of Christmann-Franck et al. (2016):

Experiments:
Assay in all cases: KINOMEscan competition binding
Conditions in all cases: compound 10.0 µM
[1] = target: PAK6 (human) (UniProt Q9NQU5)
[2] = target: ROS1 (human) (UniProt P08922)
[3] = target: INSR (human) (UniProt P06213)
[4] = target: AKT1 (human) (UniProt P31749)
[5] = target: MAP2K2 (human) (UniProt P36507)
[6] = target: PRKAA2 (human) (UniProt P54646)
[7] = target: MAP3K3 (human) (UniProt Q99759)
[8] = target: PAK7 (human) (UniProt Q9P286)
[9] = target: STK36 (human) (UniProt Q9NRP7)
[10] = target: MAP2K3 (human) (UniProt P46734)
[11] = target: FGFR2 (human) (UniProt P21802)
[12] = tested on: KIT (human), P10721 [D816V]
[13] = target: MST4 (human) (UniProt Q9P289)
[14] = target: ACVR1B (human) (UniProt P36896)
[15] = target: EPHB3 (human) (UniProt P54753)
[16] = target: CSNK1G2 (human) (UniProt P78368)
[17] = target: PRKACA (human) (UniProt P17612)
[18] = target: MARK4 (human) (UniProt Q96L34)
[19] = target: CSNK1G3 (human) (UniProt Q9Y6M4)
[20] = target: EPHA1 (human) (UniProt P21709)
[21] = target: CDK18 (human) (UniProt Q07002)
[22] = target: FRK (human) (UniProt P42685)
[23] = target: MST1R (human) (UniProt Q04912)
[24] = target: NUAK2 (human) (UniProt Q9H093)
[25] = target: AURKA (human) (UniProt O14965)
[26] = target: WEE1 (human) (UniProt P30291)
[27] = target: RPS6KA5 KD1 (human) (UniProt O75582)
[28] = target: PRKD3 (human) (UniProt O94806)
[29] = target: DMPK (human) (UniProt Q09013)
[30] = target: STK35 (human) (UniProt Q8TDR2)
[31] = target: RIOK3 (human) (UniProt O14730)
[32] = target: NLK (human) (UniProt Q9UBE8)
[33] = target: CDK7 (human) (UniProt P50613)
[34] = target: SRPK3 (human) (UniProt Q9UPE1)
[35] = target: SRPK1 (human) (UniProt Q96SB4)
[36] = target: CAMK1D (human) (UniProt Q8IU85)
[37] = target: MAPK3 (human) (UniProt P27361)
[38] = target: CDK11B (human) (UniProt P21127)
[39] = target: TYK2 JH1 catalytic (human) (UniProt P29597)
[40] = target: MAP4K5 (human) (UniProt Q9Y4K4)

Sequence of CSNK1G2 (human) (P78368 whole entry, looked up): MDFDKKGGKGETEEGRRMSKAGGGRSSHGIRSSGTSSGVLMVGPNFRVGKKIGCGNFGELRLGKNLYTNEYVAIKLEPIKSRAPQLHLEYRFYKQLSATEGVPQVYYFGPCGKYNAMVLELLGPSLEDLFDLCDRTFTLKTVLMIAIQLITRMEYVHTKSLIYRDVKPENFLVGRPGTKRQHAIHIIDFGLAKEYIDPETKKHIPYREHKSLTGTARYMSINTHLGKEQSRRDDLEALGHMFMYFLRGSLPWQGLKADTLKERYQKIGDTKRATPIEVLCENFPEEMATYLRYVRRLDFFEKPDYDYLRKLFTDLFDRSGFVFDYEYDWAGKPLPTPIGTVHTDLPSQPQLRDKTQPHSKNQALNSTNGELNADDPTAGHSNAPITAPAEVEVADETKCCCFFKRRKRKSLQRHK
Sequence of MAP2K3 (human) (P46734 whole entry, looked up): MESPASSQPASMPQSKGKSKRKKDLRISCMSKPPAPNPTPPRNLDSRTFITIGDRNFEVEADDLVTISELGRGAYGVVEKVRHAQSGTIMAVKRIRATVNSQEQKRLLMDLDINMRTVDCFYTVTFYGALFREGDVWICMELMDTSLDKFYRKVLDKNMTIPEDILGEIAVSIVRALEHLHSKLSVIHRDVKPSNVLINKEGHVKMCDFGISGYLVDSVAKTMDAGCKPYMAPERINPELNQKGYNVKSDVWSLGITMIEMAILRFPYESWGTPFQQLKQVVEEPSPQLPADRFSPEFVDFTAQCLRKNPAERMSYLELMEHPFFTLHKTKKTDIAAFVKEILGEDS
Sequence of CDK11B (human) (P21127 whole entry, looked up): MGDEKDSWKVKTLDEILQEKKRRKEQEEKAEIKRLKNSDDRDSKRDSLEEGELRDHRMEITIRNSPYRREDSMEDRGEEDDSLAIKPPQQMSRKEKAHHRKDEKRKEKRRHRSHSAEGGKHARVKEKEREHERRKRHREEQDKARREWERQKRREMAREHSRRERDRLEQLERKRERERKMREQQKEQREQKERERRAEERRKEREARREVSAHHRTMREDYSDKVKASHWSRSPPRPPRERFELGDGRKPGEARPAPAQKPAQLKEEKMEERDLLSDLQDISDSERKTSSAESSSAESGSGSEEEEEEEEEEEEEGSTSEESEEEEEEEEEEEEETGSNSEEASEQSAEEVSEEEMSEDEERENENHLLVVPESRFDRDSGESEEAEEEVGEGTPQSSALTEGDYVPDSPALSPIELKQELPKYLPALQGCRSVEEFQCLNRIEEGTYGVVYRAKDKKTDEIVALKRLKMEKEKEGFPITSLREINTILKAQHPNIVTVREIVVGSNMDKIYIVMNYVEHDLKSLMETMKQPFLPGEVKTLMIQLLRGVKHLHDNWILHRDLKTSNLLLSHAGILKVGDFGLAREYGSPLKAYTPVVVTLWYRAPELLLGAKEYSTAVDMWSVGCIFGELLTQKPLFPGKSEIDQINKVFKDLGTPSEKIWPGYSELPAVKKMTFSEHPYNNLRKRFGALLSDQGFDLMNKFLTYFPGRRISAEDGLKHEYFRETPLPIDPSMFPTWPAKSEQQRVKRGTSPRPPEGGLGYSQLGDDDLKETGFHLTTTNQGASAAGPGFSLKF
Sequence of MAPK3 (human) (P27361 whole entry, looked up): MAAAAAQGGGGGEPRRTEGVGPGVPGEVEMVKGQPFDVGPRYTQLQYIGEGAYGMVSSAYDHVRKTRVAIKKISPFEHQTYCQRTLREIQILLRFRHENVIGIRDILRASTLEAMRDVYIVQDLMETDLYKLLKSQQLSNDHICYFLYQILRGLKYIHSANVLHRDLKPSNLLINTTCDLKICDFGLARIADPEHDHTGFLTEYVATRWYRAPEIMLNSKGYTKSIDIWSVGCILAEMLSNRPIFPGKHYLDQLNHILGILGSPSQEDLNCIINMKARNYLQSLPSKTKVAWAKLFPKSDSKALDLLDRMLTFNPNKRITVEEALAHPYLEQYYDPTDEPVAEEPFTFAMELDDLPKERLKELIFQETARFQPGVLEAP
Sequence of ACVR1B (human) (P36896 whole entry, looked up): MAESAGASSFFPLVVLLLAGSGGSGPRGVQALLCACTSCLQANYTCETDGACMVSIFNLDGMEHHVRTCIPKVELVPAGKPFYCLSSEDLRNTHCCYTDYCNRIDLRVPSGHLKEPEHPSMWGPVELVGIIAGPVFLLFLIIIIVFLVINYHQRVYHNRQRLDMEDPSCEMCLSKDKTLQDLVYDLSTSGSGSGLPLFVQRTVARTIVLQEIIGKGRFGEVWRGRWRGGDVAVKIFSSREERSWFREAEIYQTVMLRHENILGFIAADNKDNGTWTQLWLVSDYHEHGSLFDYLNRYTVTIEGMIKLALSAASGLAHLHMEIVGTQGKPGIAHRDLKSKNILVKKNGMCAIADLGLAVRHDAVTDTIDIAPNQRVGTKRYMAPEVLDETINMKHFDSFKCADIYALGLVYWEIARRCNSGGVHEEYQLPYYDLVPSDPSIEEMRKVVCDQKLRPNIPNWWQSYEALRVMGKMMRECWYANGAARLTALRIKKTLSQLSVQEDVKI
Sequence of MST4 (human) (Q9P289 whole entry, looked up): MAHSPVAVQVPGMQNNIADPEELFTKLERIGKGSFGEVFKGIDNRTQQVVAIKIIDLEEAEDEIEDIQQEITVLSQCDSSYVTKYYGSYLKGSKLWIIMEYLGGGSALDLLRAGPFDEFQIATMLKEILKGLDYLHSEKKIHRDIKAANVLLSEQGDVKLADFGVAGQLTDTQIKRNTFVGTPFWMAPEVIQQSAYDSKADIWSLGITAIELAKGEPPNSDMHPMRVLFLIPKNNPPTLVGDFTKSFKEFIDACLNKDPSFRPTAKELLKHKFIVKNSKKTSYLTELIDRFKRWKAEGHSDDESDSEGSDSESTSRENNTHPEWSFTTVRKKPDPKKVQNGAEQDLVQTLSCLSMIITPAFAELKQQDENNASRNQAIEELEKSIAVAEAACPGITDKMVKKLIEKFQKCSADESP
Sequence of EPHA1 (human) (P21709 whole entry, looked up): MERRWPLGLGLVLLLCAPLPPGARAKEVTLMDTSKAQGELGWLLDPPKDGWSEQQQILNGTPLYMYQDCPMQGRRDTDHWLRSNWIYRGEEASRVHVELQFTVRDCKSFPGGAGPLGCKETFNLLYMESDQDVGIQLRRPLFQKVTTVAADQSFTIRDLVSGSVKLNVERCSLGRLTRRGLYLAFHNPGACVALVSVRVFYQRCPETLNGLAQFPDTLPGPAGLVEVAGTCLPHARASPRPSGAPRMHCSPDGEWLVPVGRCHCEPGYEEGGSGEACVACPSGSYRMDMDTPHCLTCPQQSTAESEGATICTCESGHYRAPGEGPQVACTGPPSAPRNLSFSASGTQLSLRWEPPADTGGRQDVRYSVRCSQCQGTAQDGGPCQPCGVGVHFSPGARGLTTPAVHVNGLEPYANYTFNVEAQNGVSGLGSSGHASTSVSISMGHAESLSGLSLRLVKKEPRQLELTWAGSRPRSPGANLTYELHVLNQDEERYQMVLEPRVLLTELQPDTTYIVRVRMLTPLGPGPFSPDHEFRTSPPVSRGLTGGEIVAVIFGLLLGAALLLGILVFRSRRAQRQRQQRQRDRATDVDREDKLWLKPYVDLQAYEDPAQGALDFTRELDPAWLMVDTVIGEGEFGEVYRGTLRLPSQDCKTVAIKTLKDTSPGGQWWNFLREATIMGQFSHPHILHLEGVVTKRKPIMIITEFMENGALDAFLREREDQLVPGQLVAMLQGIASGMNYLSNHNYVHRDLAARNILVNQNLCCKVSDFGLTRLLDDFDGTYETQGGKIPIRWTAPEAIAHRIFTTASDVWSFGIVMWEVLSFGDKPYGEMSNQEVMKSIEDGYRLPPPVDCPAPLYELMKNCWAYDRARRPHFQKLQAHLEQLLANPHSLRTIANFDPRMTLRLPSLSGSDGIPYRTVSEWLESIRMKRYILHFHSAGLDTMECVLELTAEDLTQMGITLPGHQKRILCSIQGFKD
Sequence of AKT1 (human) (P31749 whole entry, looked up): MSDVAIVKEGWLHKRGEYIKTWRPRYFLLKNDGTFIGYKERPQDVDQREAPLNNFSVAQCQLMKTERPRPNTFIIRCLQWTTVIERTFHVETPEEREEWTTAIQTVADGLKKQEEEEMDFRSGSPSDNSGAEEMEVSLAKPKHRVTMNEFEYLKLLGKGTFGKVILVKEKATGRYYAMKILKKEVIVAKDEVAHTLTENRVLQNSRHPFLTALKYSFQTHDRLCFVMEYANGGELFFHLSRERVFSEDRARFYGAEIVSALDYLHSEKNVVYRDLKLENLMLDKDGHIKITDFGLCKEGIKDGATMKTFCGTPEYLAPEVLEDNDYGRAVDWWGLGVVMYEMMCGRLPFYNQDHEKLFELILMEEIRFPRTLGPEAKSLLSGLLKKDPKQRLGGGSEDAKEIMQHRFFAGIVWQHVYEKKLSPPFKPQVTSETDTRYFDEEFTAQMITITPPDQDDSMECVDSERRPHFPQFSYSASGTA
Sequence of CDK7 (human) (P50613 whole entry, looked up): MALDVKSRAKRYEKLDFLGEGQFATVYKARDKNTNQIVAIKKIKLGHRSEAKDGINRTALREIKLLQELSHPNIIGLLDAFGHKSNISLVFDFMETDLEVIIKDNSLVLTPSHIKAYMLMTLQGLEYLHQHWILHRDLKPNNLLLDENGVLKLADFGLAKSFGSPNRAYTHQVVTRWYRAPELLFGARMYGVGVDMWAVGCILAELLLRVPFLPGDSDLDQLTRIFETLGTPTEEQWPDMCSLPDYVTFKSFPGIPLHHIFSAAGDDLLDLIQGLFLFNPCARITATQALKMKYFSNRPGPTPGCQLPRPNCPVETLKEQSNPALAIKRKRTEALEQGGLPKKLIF

Row | Compound | kinase still bound, per cent of control [1] [%] | kinase still bound, per cent of control [2] [%] | kinase still bound, per cent of control [3] [%] | kinase still bound, per cent of control [4] [%] | kinase still bound, per cent of control [5] [%] | kinase still bound, per cent of control [6] [%] | kinase still bound, per cent of control [7] [%] | kinase still bound, per cent of control [8] [%] | kinase still bound, per cent of control [9] [%] | kinase still bound, per cent of control [10] [%] | kinase still bound, per cent of control [11] [%] | kinase still bound, per cent of control [12] [%] | kinase still bound, per cent of control [13] [%] | kinase still bound, per cent of control [14] [%] | kinase still bound, per cent of control [15] [%] | kinase still bound, per cent of control [16] [%] | kinase still bound, per cent of control [17] [%] | kinase still bound, per cent of control [18] [%] | kinase still bound, per cent of control [19] [%] | kinase still bound, per cent of control [20] [%] | also measured
1 | O=C(NC1CC1)c1cccc(-c2ccc3c(NC(=O)C4CC4)n[nH]c3c2)c1 | 61 | 100 | 78 | 100 | 82 | 45 | 85 | 67 | 88 | 33 | 100 | 97 | 94 | 59 | 100 | 94 | 100 | 96 | 98 | 98 | kinase still bound, per cent of control [21]: 58%; kinase still bound, per cent of control [22]: 89%; kinase still bound, per cent of control [23]: 90%; kinase still bound, per cent of control [24]: 24%; kinase still bound, per cent of control [25]: 86%; kinase still bound, per cent of control [26]: 84%; kinase still bound, per cent of control [27]: 100%; kinase still bound, per cent of control [28]: 100%; kinase still bound, per cent of control [29]: 100%; kinase still bound, per cent of control [30]: 16%; kinase still bound, per cent of control [31]: 6.8%; kinase still bound, per cent of control [32]: 31%; kinase still bound, per cent of control [33]: 18%; kinase still bound, per cent of control [34]: 10%; kinase still bound, per cent of control [35]: 43%; kinase still bound, per cent of control [36]: 100%; kinase still bound, per cent of control [37]: 95%; kinase still bound, per cent of control [38]: 97%; kinase still bound, per cent of control [39]: 40%; kinase still bound, per cent of control [40]: 24%
2 | Cc1ccc(NC(=O)c2cccc(C(C)(C)C#N)c2)cc1Nc1ccc2ncn(C)c(=O)c2c1 | 84 | 100 | 100 | 100 | 100 | 100 | 100 | 100 | 88 | 80 | 55 | 16 | 100 | 97 | 0 | 100 | 100 | 100 | 100 | 10 | kinase still bound, per cent of control [21]: 100%; kinase still bound, per cent of control [22]: 2.8%; kinase still bound, per cent of control [23]: 100%; kinase still bound, per cent of control [24]: 100%; kinase still bound, per cent of control [25]: 100%; kinase still bound, per cent of control [26]: 100%; kinase still bound, per cent of control [27]: 100%; kinase still bound, per cent of control [28]: 88%; kinase still bound, per cent of control [29]: 90%; kinase still bound, per cent of control [30]: 75%; kinase still bound, per cent of control [31]: 100%; kinase still bound, per cent of control [32]: 48%; kinase still bound, per cent of control [33]: 100%; kinase still bound, per cent of control [34]: 100%; kinase still bound, per cent of control [35]: 100%; kinase still bound, per cent of control [36]: 100%; kinase still bound, per cent of control [37]: 100%; kinase still bound, per cent of control [38]: 11%; kinase still bound, per cent of control [39]: 85%; kinase still bound, per cent of control [40]: 59%
3 | CCN1CCN(Cc2ccc(Nc3ncc4c(n3)N(C)c3ccccc3C(=O)N4C)cc2C(F)(F)F)CC1 | 79 | 11 | 92 | 100 | 89 | 5 | 0.65 | 81 | 82 | 74 | 50 | 46 | 5.6 | 100 | 80 | 8.9 | 100 | 19 | 5.4 | 61 | kinase still bound, per cent of control [21]: 97%; kinase still bound, per cent of control [22]: 19%; kinase still bound, per cent of control [23]: 100%; kinase still bound, per cent of control [24]: 6.6%; kinase still bound, per cent of control [25]: 0.4%; kinase still bound, per cent of control [26]: 91%; kinase still bound, per cent of control [27]: 100%; kinase still bound, per cent of control [28]: 8%; kinase still bound, per cent of control [29]: 91%; kinase still bound, per cent of control [30]: 76%; kinase still bound, per cent of control [31]: 38%; kinase still bound, per cent of control [32]: 56%; kinase still bound, per cent of control [33]: 4%; kinase still bound, per cent of control [34]: 57%; kinase still bound, per cent of control [35]: 82%; kinase still bound, per cent of control [36]: 76%; kinase still bound, per cent of control [37]: 99%; kinase still bound, per cent of control [38]: 99%; kinase still bound, per cent of control [39]: 2%; kinase still bound, per cent of control [40]: 35%
